Results: publication PMC6096457, “Modified translationally controlled tumor protein-derived protein transduction domain enhances nasal delivery of exendin-4 as shown with insulin” (Drug Delivery, 2018)

Test: Visual inspection for cloudiness (turbidity) and precipitation
Assay type: physicochemical
Conditions: mixtures in 10 mM phosphate buffer pH 6.4
Description: All exendin-4/PTD mixtures were clear.

Sequence: MIIFRLLAYHKK [TCTP-PTD 13M3, substitution S9Y of TCTP-PTD 13M2]
- cloudiness (turbidity) and precipitation: did not form any precipitations
